PubChem BioAssay AID248 (DTP/NCI, 2004)
“And” between values parts separate entries of the source, which are not always exact repeats. Identical values can stand only once. Toxic doses and inconclusive results are not listed. Rule as the data show it: active = T/C of 150% or more; inactive = T/C below 125%.

Test system: L1210 leukemia ip in BDF1 mice, survival T/C
Assay: NCI In Vivo Anticancer Drug Screen. Data for tumor model L1210 Leukemia (intraperitoneal) in B6D2F1 (BDF1) mice
Settings: endpoint: mean survival time, higher = longer survival
Procedure, shortened: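 Ratio derived from survival: compound-dosed mice over vehicle-dosed mice, all bearing a transplantable tumor.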

[1] = dose: 100.0 mg/kg/injection, schedule: Q01DX001 (ip), vehicle: Klucel (hydroxypropylcellulose) (HPC)
[2] = dose: 100.0 mg/kg/injection, schedule: Q01DX009 (ip), vehicle: Klucel (hydroxypropylcellulose) (HPC)
[3] = dose: 100.0 mg/kg/injection, schedule: Q04DX003 (ip), vehicle: Klucel (hydroxypropylcellulose) (HPC)
[4] = dose: 200.0 mg/kg/injection, schedule: Q01DX001 (ip), vehicle: Klucel (hydroxypropylcellulose) (HPC)
[5] = dose: 200.0 mg/kg/injection, schedule: Q01DX009 (ip), vehicle: Klucel (hydroxypropylcellulose) (HPC)
[6] = dose: 200.0 mg/kg/injection, schedule: Q04DX003 (ip), vehicle: Klucel (hydroxypropylcellulose) (HPC)
[7] = dose: 400.0 mg/kg/injection, schedule: Q01DX001 (ip), vehicle: Klucel (hydroxypropylcellulose) (HPC)
[8] = dose: 400.0 mg/kg/injection, schedule: Q01DX009 (ip), vehicle: Klucel (hydroxypropylcellulose) (HPC)
[9] = dose: 400.0 mg/kg/injection, schedule: Q04DX003 (ip), vehicle: Klucel (hydroxypropylcellulose) (HPC)
[10] = dose: 100.0 mg/kg/injection, schedule: Q04DX003 (ip), vehicle: saline with Tween-80
[11] = dose: 200.0 mg/kg/injection, schedule: Q04DX003 (ip), vehicle: saline with Tween-80
[12] = dose: 100.0 mg/kg/injection, schedule: Q01DX009 (ip), vehicle: saline with Tween-80
[13] = dose: 200.0 mg/kg/injection, schedule: Q01DX009 (ip), vehicle: saline with Tween-80
[14] = dose: 50.0 mg/kg/injection, schedule: Q01DX009 (ip), vehicle: saline with Tween-80
[15] = dose: 100.0 mg/kg/injection, schedule: Q01DX001 (ip), vehicle: carboxymethylcellulose (CMC)
[16] = dose: 200.0 mg/kg/injection, schedule: Q01DX001 (ip), vehicle: carboxymethylcellulose (CMC)
[17] = dose: 400.0 mg/kg/injection, schedule: Q01DX001 (ip), vehicle: carboxymethylcellulose (CMC)

Measured: T/C

OCC(O)C(O)C(O)C(c1ccccc1)c1ccccc1 (stereo not drawn)
inactive: dose: 50.0 mg/kg/injection, schedule: Q01DX001 (ip), vehicle: saline 107 % of control | dose: 100.0 mg/kg/injection, schedule: Q01DX001 (ip), vehicle: saline 98 % of control | dose: 200.0 mg/kg/injection, schedule: Q01DX001 (ip), vehicle: saline 96 % of control | dose: 400.0 mg/kg/injection, schedule: Q01DX001 (ip), vehicle: saline 98 % of control

O=C(NCCCC(NC(=O)OCc1ccccc1)C(=O)NCCCNCCCCNCCCNC(=O)C(CCCNC(=O)OCc1ccccc1)NC(=O)OCc1ccccc1)OCc1ccccc1 (stereo not drawn)
inactive: dose: 10.0 mg/kg/injection, schedule: Q01DX Z (ip), vehicle: saline 90 % of control

O=C(Nc1cccc(O)c1)Nc1cc([N+](=O)[O-])ccc1F
inactive: [1] 91 % of control | [2] 100 % of control and 90 % of control | [3] 93 % of control | [4] 98 % of control | [5] 94 % of control and 95 % of control | [6] 102 % of control | [7] 94 % of control | [8] 94 % of control and 100 % of control | [9] 95 % of control

CCOC(=O)c1ccc(NC(=O)CN2CCOCC2)cc1
inactive: dose: 222.0 mg/kg/injection, schedule: Q01DX Z (ip), vehicle: saline 102 % of control | dose: 333.0 mg/kg/injection, schedule: Q01DX Z (ip), vehicle: saline 98 % of control | dose: 500.0 mg/kg/injection, schedule: Q01DX Z (ip), vehicle: saline 90 % of control

CNC(=O)Oc1cccc(NC(=O)N(C(C)C)C(C)C)c1
inactive: [10] 91 % of control | [11] 89 % of control | dose: 400.0 mg/kg/injection, schedule: Q04DX003 (ip), vehicle: saline with Tween-80 88 % of control

CCOCc1nc(N)nc(N)c1-c1cccc(Cl)c1
inactive: [12] 104 % of control | [13] 117 % of control

CCc1ccccc1NC(=O)NC(C)C
inactive: [2] 98 % of control | [3] 90 % of control | [5] 91 % of control | [6] 97 % of control | [8] 95 % of control | [9] 92 % of control

[N-]=[N+]=C1N=C(Br)N=C1c1n[nH]c(Br)n1
inactive: [1] 98 % of control | [4] 109 % of control | [7] 102 % of control

CCNC(=O)Nc1cccc(NC(=O)C(=O)O)c1 (tested in a mixture with another compound)
inactive: dose: 100.0 mg/kg/injection, schedule: Q01DX001 (ip), vehicle: gum acacia 87 % of control | dose: 200.0 mg/kg/injection, schedule: Q01DX001 (ip), vehicle: gum acacia 97 % of control | dose: 400.0 mg/kg/injection, schedule: Q01DX001 (ip), vehicle: gum acacia 96 % of control

CC(=O)c1ccc(Cc2ccc(C(C)=O)s2)s1
inactive: [14] 86 % of control | [12] 93 % of control | [13] 89 % of control

COC(=O)c1ccc(S(=O)(=O)O)cc1[N+](=O)[O-]
inactive: dose: 100.0 mg/kg/injection, schedule: Q04DX002 (ip), vehicle: saline 100 % of control | dose: 200.0 mg/kg/injection, schedule: Q04DX002 (ip), vehicle: saline 88 % of control | dose: 400.0 mg/kg/injection, schedule: Q04DX002 (ip), vehicle: saline 96 % of control

C#CC(OC(=O)c1cc([N+](=O)[O-])cc([N+](=O)[O-])c1)C1OC(C)(C)OC1C1COC(C)(C)O1 (stereo not drawn)
inactive: [15] 106 % of control | [16] 106 % of control | [17] 106 % of control

S=c1[nH]c(=S)c2[nH]cnc2[nH]1
inactive: dose: 50.0 mg/kg/injection, schedule: Q01DX001 (ip), vehicle: other 113 % of control | dose: 50.0 mg/kg/injection, schedule: Q01DX009 (ip), vehicle: other 94 % of control | dose: 100.0 mg/kg/injection, schedule: Q01DX001 (ip), vehicle: other 101 % of control | dose: 100.0 mg/kg/injection, schedule: Q01DX009 (ip), vehicle: other 96 % of control | dose: 200.0 mg/kg/injection, schedule: Q01DX001 (ip), vehicle: other 103 % of control | dose: 200.0 mg/kg/injection, schedule: Q01DX009 (ip), vehicle: other 97 % of control | dose: 400.0 mg/kg/injection, schedule: Q01DX001 (ip), vehicle: other 107 % of control | dose: 400.0 mg/kg/injection, schedule: Q01DX009 (ip), vehicle: other 102 % of control | dose: 600.0 mg/kg/injection, schedule: Q01DX001 (ip), vehicle: other 100 % of control | dose: 1200.0 mg/kg/injection, schedule: Q01DX001 (ip), vehicle: other 117 % of control

Cc1cc(C)c(C(Cl)(Cl)Cl)c(C)c1Cl
inactive: dose: 22.0 mg/kg/injection, schedule: Q01DX009 (ip), vehicle: saline with Tween-80 119 % of control | dose: 33.0 mg/kg/injection, schedule: Q01DX009 (ip), vehicle: Klucel (hydroxypropylcellulose) (HPC) 113 % of control | dose: 33.0 mg/kg/injection, schedule: Q01DX009 (ip), vehicle: saline with Tween-80 112 % of control | dose: 50.0 mg/kg/injection, schedule: Q01DX009 (ip), vehicle: Klucel (hydroxypropylcellulose) (HPC) 100 % of control | [14] 118 % of control | dose: 75.0 mg/kg/injection, schedule: Q01DX009 (ip), vehicle: Klucel (hydroxypropylcellulose) (HPC) 107 % of control | dose: 75.0 mg/kg/injection, schedule: Q01DX009 (ip), vehicle: saline with Tween-80 113 % of control | [15] 121 % of control | [12] 121 % of control | [10] 120 % of control | [16] 118 % of control | [13] 103 % of control | [11] 108 % of control | [17] 121 % of control

O=C(O)c1cc(=O)cc(C(=O)O)[nH]1
inactive: [2] 102 % of control | [3] 102 % of control | [5] 96 % of control | [6] 96 % of control | [8] 92 % of control | [9] 104 % of control
